In one assay the test system is Protease XXIII. In words: Homogeneous aqueous enzymatic resolution (ester hydrolysis) with enzyme A. The class given is biochemical, Aspergillus oryzae. To be noted: 10.0 mmol ester in 100 ml 0.2 M phosphate buffer pH 7.0, 100 mg enzyme A, 20-22 °C, 20 hours. How it is done: The enzymes used in Examples 6.2.1.1-6.2.1.17, 6.2.1.20-6.2.1.21, 6.2.1.23-6.2.1.28, 6.2.2.7, and 6.2.3.1-6.2.3.5 that follow were all proteases commercially available from Sigma Chemical Co., St. Louis, MO. […] For examples 6.2.2.5-6.2.2.6, Candida lipase obtained from Genzyme Corporation was used.
No further purification was performed.
The aqueous layer was retained.

For assay [1], the target named is T1, Protease VIII: "Subtilopeptidase A" (Bacillus licheniformis, UniProt P00780).
T1 sequence (P00780 106-379): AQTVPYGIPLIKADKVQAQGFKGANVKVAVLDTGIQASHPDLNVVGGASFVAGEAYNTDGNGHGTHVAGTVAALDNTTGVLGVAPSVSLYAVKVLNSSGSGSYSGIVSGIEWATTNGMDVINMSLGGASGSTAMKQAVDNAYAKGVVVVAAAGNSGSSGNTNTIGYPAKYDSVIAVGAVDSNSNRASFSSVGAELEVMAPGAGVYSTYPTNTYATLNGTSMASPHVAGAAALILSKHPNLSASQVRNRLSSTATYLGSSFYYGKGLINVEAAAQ
In words: Homogeneous aqueous enzymatic resolution (ester hydrolysis) with enzyme B. The class given is biochemical. To be noted: 10.0 mmol ester in 100 ml 0.2 M phosphate buffer pH 7.0, 100 mg enzyme B, 20-22 °C, 20 hours.

The subject of the next assay is Protease XVI. In words: Homogeneous aqueous enzymatic resolution (ester hydrolysis) with enzyme C. To be noted: 10.0 mmol ester in 100 ml 0.2 M phosphate buffer pH 7.0, 100 mg enzyme C, 20-22 °C, 20 hours. The class given is biochemical, Bacillus subtilis. From the text:
(§1) The enzymes used in Examples 6.2.1.1-6.2.1.17, 6.2.1.20-6.2.1.21, 6.2.1.23-6.2.1.28, 6.2.2.7, and 6.2.3.1-6.2.3.5 that follow were all proteases commercially available from Sigma Chemical Co., St. Louis, MO. These proteases are listed in each example using the Sigma numbering system, which is summarized below: • Protease VIII: "Subtilopeptidase A", product P-5380 (also known as subtilisin Carlsberg) • Protease XIV: from Streptomyces griseus, product P-5147 • Protease XVI: from Bacillus subtilis, product P-8775 • Protease XXIII: from Aspergillus oryzae, product P-4032 • Protease XXVII: "Nagarse", product P-4789 • Protease XXIV: bacterial protease, product P-8038 An additional protease enzyme, which was designated Prozyme 6, was obtained from the Amano Enzyme Corporation and used in Examples 6.2.1.18-6.2.19, 6.2.1.22, 6.2.1.29-6.2.1.30 and 6.2.2.1-6.2.2.4 described below. A pig liver esterase was used in Example 6.21.11; this enzyme, obtained from Sigma Chemical Company, was designated as their product E-3128. For examples 6.2.2.5-6.2.2.6, Candida lipase obtained from Genzyme Corporation was used. Finally, Candida lipase, product L-1754, obtained from Sigma Chemical Co. was used in Example 6.2.2.7.

Assay [2] deals with T2, Protease XXVII: "Nagarse" (Bacillus amyloliquefaciens, UniProt P00782).
T2 sequence (P00782 108-382): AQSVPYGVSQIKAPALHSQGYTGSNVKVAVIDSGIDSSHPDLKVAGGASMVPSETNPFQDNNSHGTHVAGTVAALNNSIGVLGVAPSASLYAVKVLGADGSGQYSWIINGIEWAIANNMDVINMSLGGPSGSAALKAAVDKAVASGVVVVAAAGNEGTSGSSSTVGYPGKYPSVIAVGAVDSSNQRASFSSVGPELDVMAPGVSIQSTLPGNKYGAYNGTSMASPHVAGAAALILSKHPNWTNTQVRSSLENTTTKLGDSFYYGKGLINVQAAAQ
In words: Homogeneous aqueous enzymatic resolution (ester hydrolysis) with enzyme D. Format: biochemical. To be noted: 10.0 mmol ester in 100 ml 0.2 M phosphate buffer pH 7.0, 100 mg enzyme D, 20-22 °C, 20 hours.
From the text: as §1

For assay [3], the system named is Prozyme 6. Put plainly: Homogeneous aqueous enzymatic resolution (ester hydrolysis) with enzyme F. Format: biochemical, Aspergillus oryzae. To be noted: for Conversion in Homogeneous Aqueous Reaction System: 30 °C.
The subject of assay [4] is Prozyme 6. In words: Asymmetric hydrolysis in an extractive dispersion reactor with enzyme F. The class given is biochemical, Aspergillus oryzae. To be noted: 3.38 gm ester in 100 ml 0.2 M sodium phosphate buffer pH 7.0 and 100 ml hexane, 100 mg Prozyme 6, 3.5 hours at room temperature, vigorous stirring. The method, then:
In this Example, the hexane was dispersed in the reaction vessel to extract the inhibitory ibuprofen acid as it is formed. The
reaction was started by adding 100 mg of the protease from the fungus Aspergillus oryzae (from Amano Enzyme Corporation, Prozyme 6, 60,000 units per mg of solid).
After 3.5 hours at room temperature with vigorous stirring, the solution was acidified to pH 2 and extracted with 2 volumes of hexane. The aqueous phase was saved for subsequent workup. The hexane phase was dried over MgS04 and evaporated to dryness. The resolved ibuprofen product so recovered consisted of 490 mg of white powder, indicating 24% conversion. The optical rotation was -0.568 (c = 1.015 in ethanol), indicating the R isomer of ibuprofen.

The subject of assay [5] is Prozyme 6. Put plainly: Asymmetric hydrolysis in an extractive membrane reactor with enzyme F. The class given is biochemical, Aspergillus oryzae. To be noted: for enantiomeric excess: chiral HPLC, enzyme in aqueous phase only, 6.3 hours.
The test system of assay [6] is lipase from Candida cylindracea (Lipase OF). Put plainly: Activity of the carrier lipase against the ester. The class given is biochemical. To be noted: Meito Sangyo Company.

Structures can show the parent of a compound that is named as a salt.

Consider 1 molecule from patent EP0423133B1, “ENZYMATIC RESOLUTION SYSTEMS AND COMPOUNDS USEFUL IN THE SYSTEMS AND THEIR REPARATIONS” (priority 1988, dated 1989).

For the molecule `CC(C)Cc1ccc(C(C)C(=O)OCS(=O)(=O)O)cc1` (racemic) [Compound 1, Sodium Salt of 4-Sulfomethyl Ester of 2-(4-Isobutylphenyl) propanoic Acid], the “% CONVERSION” value is on record as 37.9% in the assay on Protease XXIII, 29.1% in assay [1], 27.2% in the assay with Protease XVI and 34.0% in assay [2]. Further, the “% e.e.” value in the assay on Protease XXIII (acid product, R) is given as above 99%; in assay [1] (acid product, R), 44.6%; in the assay on Protease XVI (acid product, R), 70.7%; in assay [2] (acid product, R), 37.7%. In addition, the “conversion of racemic ester to acid” value in the assay on Prozyme 6 [3] (3.22 gm ester in 100 ml 0.2 M sodium phosphate buffer pH 7.0, 100 mg protease (F), 20 hours at room temperature) is 45%. For the same molecule, the conversion in the assay on Prozyme 6 [3] (After 6.49 hours at 30 °C, 0.5 M ester in 325 ml 0.1 M sodium phosphate buffer pH 7.0, 3 gm enzyme (F)) was 37.7%; in the assay on Prozyme 6 [4], 24%. In addition, the “Conversion in Homogeneous Aqueous Reaction System” value in the assay on Prozyme 6 [3] (Time 6.75 hrs, 0.5 M ester in 325 ml 0.1 M sodium phosphate buffer pH 7.0, 3 gm enzyme (F)) is listed as 37.7%; in the assay with Prozyme 6 [3] (Time 23.1 hrs, 0.5 M ester in 325 ml 0.1 M sodium phosphate buffer pH 7.0, 3 gm enzyme (F)), 40.9%. In addition, the enantiomeric excess stood at 99.3% in the assay on Prozyme 6 [5] (R ibuprofen acid product) and 98.9% in the assay with Prozyme 6 [5] (S ibuprofen from hydrolysis (pH 12) of the unconverted ester). For the same molecule, the “conversion of the racemic ester to the acid” value with Prozyme 6 [5] (enzyme in aqueous phase and in membrane pores (polyacrylonitrile fibers, 80% cyclohexane:20% toluene), 0.5 M ester, 3 gm protease (F), 6.75 hours at 30 °C) worked out at 48.3%. Besides, the “conversion of the racemic ester to ibuprofen acid” value in the assay with Prozyme 6 [5] (enzyme in aqueous phase only (cellulose dialysis fibers, hexane), 32.51 gm ester in 1000 ml 0.1 M sodium phosphate buffer pH 7.0, 2 gm protease (F), 6.3 hours at room temperature) came to 50%. In addition, the “activity of the enzyme against the ester” value in assay [6] was “inactive”.
